This note sets out measurements from US20200216416A1, “QUINOLINE COMPOUNDS AS INHIBITORS OF TAM AND MET KINASES” (Array BioPharma Inc., priority 2019, published 2020).

The term IC50 denotes the concentration that inhibits the measured activity by half. In general, Papp refers to the rate of passage across a membrane or cell layer, normalised by area and donor concentration. Higher therefore signals ready permeation.

Read-outs that look alike come from different tables or passages of the source.

In data set [1] the target is T1, His-tagged recombinant human AXL cytoplasmic domain (Homo sapiens, UniProt P30530).
T1 construct: His-tagged recombinant human AXL cytoplasmic domain
T1 sequence (P30530 473-894 limits assumed): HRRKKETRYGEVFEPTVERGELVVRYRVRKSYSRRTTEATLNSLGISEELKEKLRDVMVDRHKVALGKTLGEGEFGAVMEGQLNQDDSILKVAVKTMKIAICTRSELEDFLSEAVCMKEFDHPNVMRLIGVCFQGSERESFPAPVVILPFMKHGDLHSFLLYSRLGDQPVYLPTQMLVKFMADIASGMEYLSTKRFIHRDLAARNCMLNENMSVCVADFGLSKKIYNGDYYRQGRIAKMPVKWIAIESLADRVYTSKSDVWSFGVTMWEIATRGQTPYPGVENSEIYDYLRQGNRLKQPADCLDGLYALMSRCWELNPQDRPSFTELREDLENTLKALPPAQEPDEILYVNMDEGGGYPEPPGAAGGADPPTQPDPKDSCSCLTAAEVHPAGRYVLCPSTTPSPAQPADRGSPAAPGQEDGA
The data set is described as follows: AXL Enzyme Assay (LanthaScreen Eu Kinase Binding). Conditions: averaged IC50; 60-minute incubation at 22° C.; TR-FRET. The essentials: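 TR-FRET binding-displacement format: 20 nM Alexa Fluor Tracer 236, 2 nM biotin-anti-His and 2 nM Eu-streptavidin in 25 mM HEPES pH 7.4, 10 mM MgCl2, 0.01% Triton X-100, 2% DMSO. After 60 min at 22 °C, ratiometric percent of control was fitted to a 4-parameter logistic curve, IC50 taken at 50 POC.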

The target in data set [2] is T2, MET (wt) GST-tagged recombinant human MET kinase domain (Homo sapiens, UniProt P08581).
T2 construct: GST-tagged recombinant human MET kinase domain; purchased Signal Chem
T2 sequence (P08581 1078-1345 limits assumed): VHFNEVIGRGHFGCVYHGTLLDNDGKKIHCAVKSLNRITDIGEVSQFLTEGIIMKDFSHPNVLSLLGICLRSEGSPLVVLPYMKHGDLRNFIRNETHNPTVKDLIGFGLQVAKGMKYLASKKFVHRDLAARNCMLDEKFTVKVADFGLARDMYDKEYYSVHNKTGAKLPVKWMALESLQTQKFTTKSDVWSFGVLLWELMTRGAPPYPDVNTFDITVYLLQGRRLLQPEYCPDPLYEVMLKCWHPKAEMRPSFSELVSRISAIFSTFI
The data set is described as follows: c-Met Enzyme Assay, wild type (LanthaScreen Eu Kinase Binding). The conditions noted are these: averaged IC50; MET (wt) 10 nM; 60-minute incubation at 22° C.; read-out: SigChem WT IC50. The method in brief:
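GST-tagged recombinant MET kinase domain was incubated with 50 nM Alexa-Fluor tracer 236, 2 nM Eu-anti-GST and compound in 25 mM HEPES pH 7.4, 10 mM MgCl2, 0.01% Triton X-100, 1 mM DTT, 2% DMSO for 60 min at 22 °C. TR-FRET ratio gave percent of control, fitted 4-parameter; IC50 at 50 POC.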
On the technique in general: In TR-FRET formats the signal depends on donor and acceptor labels being close together.

Data set [3] addresses T3, MDR1 (P-gp) (Homo sapiens, UniProt P08183).
T3 construct: expressed in transfected cells; host or cells: LLC-PK1
The data set is described as follows: MDR1 LLC-PK1 permeability assay. Conditions: pig, MDR1 transfected LLC-PK1 cells; for Papp at 2 h, 1 μM: permeability coefficient (Papp). In kind it is in vitro ADME. The method in brief: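 MDR1-transfected LLC-PK1 monolayers dosed at 1 μM test article (1% organic) in A→B and B→A directions, in triplicate, for 2 h at 37 °C; lucifer yellow monitored monolayer integrity. Compound measured by LC-MS/MS against labetalol internal standard; Papp averaged per replicate, efflux ratio = Papp(B−A)/Papp(A−B).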

Where [4] appears, read: LLC-PK1, efflux ratio = Papp(B-A)/Papp(A-B), read-out: MDR1 Pe Ratio.
The mark [5] stands for this setting: LLC-PK1, Papp(B−A)/Papp(A−B), test article 1 μM, 2 hours, 37° C., read-out: Efflux ratio.

T3 sequence (P08183 whole entry): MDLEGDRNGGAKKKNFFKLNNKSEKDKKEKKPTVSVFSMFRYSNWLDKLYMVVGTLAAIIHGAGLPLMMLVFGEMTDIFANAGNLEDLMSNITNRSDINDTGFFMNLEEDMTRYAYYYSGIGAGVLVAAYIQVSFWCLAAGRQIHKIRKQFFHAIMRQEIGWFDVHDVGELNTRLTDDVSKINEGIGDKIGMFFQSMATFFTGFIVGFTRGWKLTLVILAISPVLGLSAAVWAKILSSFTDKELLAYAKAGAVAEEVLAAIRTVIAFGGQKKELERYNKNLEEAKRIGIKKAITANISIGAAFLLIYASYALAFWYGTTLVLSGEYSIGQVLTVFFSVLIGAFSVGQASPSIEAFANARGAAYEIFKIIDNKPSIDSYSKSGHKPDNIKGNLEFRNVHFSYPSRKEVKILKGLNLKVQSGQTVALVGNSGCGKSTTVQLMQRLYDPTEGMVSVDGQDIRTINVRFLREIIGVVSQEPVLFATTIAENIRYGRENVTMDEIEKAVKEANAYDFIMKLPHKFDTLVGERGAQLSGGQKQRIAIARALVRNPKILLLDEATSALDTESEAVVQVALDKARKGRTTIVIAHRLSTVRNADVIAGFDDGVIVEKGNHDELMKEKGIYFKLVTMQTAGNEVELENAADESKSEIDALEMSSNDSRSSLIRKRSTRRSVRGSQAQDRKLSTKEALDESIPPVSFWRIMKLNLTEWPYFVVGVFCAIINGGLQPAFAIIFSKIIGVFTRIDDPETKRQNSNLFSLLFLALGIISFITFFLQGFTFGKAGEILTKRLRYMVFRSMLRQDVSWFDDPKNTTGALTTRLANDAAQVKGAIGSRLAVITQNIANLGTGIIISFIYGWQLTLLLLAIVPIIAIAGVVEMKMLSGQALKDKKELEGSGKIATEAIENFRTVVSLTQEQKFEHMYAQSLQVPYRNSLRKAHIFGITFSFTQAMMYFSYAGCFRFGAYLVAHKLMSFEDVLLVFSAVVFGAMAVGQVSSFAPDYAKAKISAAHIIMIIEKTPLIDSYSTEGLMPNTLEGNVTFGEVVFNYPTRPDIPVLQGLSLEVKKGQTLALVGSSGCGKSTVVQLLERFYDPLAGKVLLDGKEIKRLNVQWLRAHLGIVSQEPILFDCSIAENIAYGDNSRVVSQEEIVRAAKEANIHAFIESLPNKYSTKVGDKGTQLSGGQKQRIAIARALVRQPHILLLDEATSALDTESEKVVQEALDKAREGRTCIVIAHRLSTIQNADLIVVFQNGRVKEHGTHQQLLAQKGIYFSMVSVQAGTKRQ

As to `COc1cc2nccc(Oc3ccc(NC(=O)c4cn(C)c(C(C)C)c(-c5ccc(F)cc5)c4=O)nc3)c2cc1OC` [Example 45, N-(5-((6,7-dimethoxyquinolin-4-yl)oxy)pyridin-2-yl)-5-(4-fluorophenyl)-6-isopropyl-1-methyl-4-oxo-1,4-dihydropyridine-3-carboxamide], the figures for the IC50 in data set [1] and in data set [2] were 5 nM and 4.4 nM, respectively. The efflux ratio at 2 h, 1 μM in data set [3] (setting [4]) came out at 16. The molecule further displayed a Papp at 2 h, 1 μM in data set [3] of 50 nm/s.
`COc1cc2ncc(C#N)c(Oc3ccc(NC(=O)c4cn(C(C)C)cc(-c5ccc(F)cc5)c4=O)nc3)c2cc1OC` [Example 57, N-(5-((3-cyano-6,7-dimethoxyquinolin-4-yl)oxy)pyridin-2-yl)-5-(4-fluorophenyl)-1-isopropyl-4-oxo-1,4-dihydropyridine-3-carboxamide]: the IC50 was determined as 12 nM in data set [1] and 297 nM in data set [2]. Moreover, the efflux ratio at 2 h, 1 μM in data set [3] (setting [5]) was determined as 3.5; in data set [3] (setting [4]) it was 2.5. Besides, the Papp at 2 h, 1 μM in data set [3] is 150 nm/s.
Turning to `CCOc1ccc2nccc(Oc3ccc(NC(=O)c4cn(C(C)C)cc(-c5ccc(F)cc5)c4=O)nc3)c2c1` [Example 51, N-(5-((6-ethoxyquinolin-4-yl)oxy)pyridin-2-yl)-5-(4-fluorophenyl)-1-isopropyl-4-oxo-1,4-dihydropyridine-3-carboxamide], the IC50 is 5 nM in data set [1] and 22.2 nM in data set [2]. Further, the efflux ratio at 2 h, 1 μM stood at 3.5 in data set [3] (setting [5]) and 2 in data set [3] (setting [4]). Further, the Papp at 2 h, 1 μM in data set [3] was 30 nm/s.
Regarding `CCCC(CCC)n1cc(C(=O)Nc2ccc(Oc3ccnc4cc(OC)c(OC)cc34)cn2)c(=O)c(-c2ccc(F)cc2F)c1` [Example 17, 5-(2,4-difluorophenyl)-N-(5-((6,7-dimethoxyquinolin-4yl)oxy)pyridin-2-yl)-1-(heptan-4-yl)-4-oxo-1,4-dihydropyridine-3-carboxamide], the results for the IC50 in data set [1] and in data set [2] were 28 nM and 17.8 nM, respectively. The efflux ratio at 2 h, 1 μM in data set [3] (setting [4]) was found to be 24. The molecule further came in with a Papp at 2 h, 1 μM in data set [3] of less than 10 nm/s.
On the same counts, the results for `COc1cc2nccc(Oc3ccc(NC(=O)c4cn(CC(=O)N5CCCC5)cc(-c5ccc(F)cc5F)c4=O)nc3)c2cc1OC` [Example 14] are 2 nM, 7.7 nM, 125 and 100 nm/s.
As to `COc1cc2nccc(Oc3ccc(NC(=O)c4cn(CC(=O)N(C)C)cc(-c5ccc(F)cc5F)c4=O)nc3)c2cc1OC` [Example 13, 5-(2,4-difluorophenyl)-N-(5((6,7-dimethoxyquinolin-4-yl)oxy)pyridin-2-yl)-1-(2-(dimethylamino)-2-oxoethyl)-4-oxo-1,4-dihydropyridine-3-carboxamide], the IC50 in data set [1] amounted to 2 nM; in data set [2], 3.4 nM. The efflux ratio at 2 h, 1 μM in data set [3] (setting [4]) was 112. In data set [3], this molecule had a Papp at 2 h, 1 μM of 60 nm/s.
On to `COc1cc2nccc(Oc3ccc(NC(=O)c4cn(C(C)C)cc(-c5ccc(F)c(Cl)c5)c4=O)nc3)c2cc1OC` [Example 21, 5-(3-chloro-4-fluorophenyl)-N-(5-((6,7-dimethoxyquinolin-4-yl)oxy)pyridin-2-yl)-1-isopropyl-4-oxo-1,4-dihydropyridine-3-carboxamide], for which the IC50 was found to be 10 nM in data set [1] and 13.5 nM in data set [2]. Further, the results for the efflux ratio at 2 h, 1 μM in data set [3] (setting [5]) and in data set [3] (setting [4]) were 3.5 and 1.3, respectively. This molecule showed a Papp at 2 h, 1 μM in data set [3] of 12 nm/s.
For the molecule `CCCn1cc(C(=O)Nc2ccc(Oc3ccnc4cc(OC)c(OC)cc34)cn2)c(=O)c(-c2ccc(F)cc2)c1` [Example 10, N-(5((6,7-dimethoxyquinolin-4-yl)oxy)pyridin-2-yl)-5-(4-fluorophenyl)-4-oxo-1-propyl-1,4-dihydropyridine-3-carboxamide], the IC50 in data set [1] was 4 nM; in data set [2] it was 3.6 nM. Moreover, the efflux ratio at 2 h, 1 μM in data set [3] (setting [4]) amounted to 2.7. Besides, in data set [3], the Papp at 2 h, 1 μM was 70 nm/s.
On the same counts, the results for `COc1cc2nccc(Oc3ccc(NC(=O)c4c[nH]cc(-c5ccc(F)cc5)c4=O)nc3)c2cc1OC` [Example 26, N-(5-((6,7-dimethoxyquinolin-4yl)oxy)pyridin-2-yl)-5-(4-fluorophenyl)-4-oxo-1,4-dihydropyridine-3-carboxamide] are 7 nM, 6 nM, 44 and 30 nm/s.
Take `COc1cc2c(Oc3ccc(NC(=O)c4cn(C(C)C)c(C)c(-c5ccc(F)cc5)c4=O)nc3)ccnc2cc1F` [Example 48, N-(5-((7-fluoro-6-methoxyquinolin-4yl)oxy)pyridin-2-yl)-5-(4-fluorophenyl)-1-isopropyl-6-methyl-4-oxo-1,4-dihydropyridine-3-carboxamide]: the IC50 in data set [1] came to 2 nM; in data set [2], 6.8 nM. Also, the values for the efflux ratio at 2 h, 1 μM in data set [3] (setting [5]) and in data set [3] (setting [4]) were 3.5 and 1.6, respectively. Besides, the Papp at 2 h, 1 μM in data set [3] worked out at 150 nm/s.
For the molecule `COc1cc2nccc(Oc3ccc(NC(=O)c4cn(CCC(C)C)cc(-c5ccc(F)cc5)c4=O)nc3)c2cc1OC` [Example 34, N-(5-((6,7-dimethoxyquinolin-4yl)oxy)pyridin-2-yl)-5-(4-fluorophenyl)-1-isopentyl-4-oxo-1,4-dihydropyridine-3-carboxamide], the values for the 50% inhibitory concentration (IC50) in data set [1] and in data set [2] were 2 nM and 4 nM, respectively. Moreover, the efflux ratio at 2 h, 1 μM in data set [3] (setting [4]) worked out at 5.3. The molecule also yielded a Papp at 2 h, 1 μM in data set [3] of less than 10 nm/s.
The matching figures for `CCn1cc(C(=O)Nc2ccc(Oc3ccnc4cc(OC)c(OC)cc34)cn2)c(=O)c(-c2ccc(F)cc2)c1` [Example 3]: 1 nM, 3.2 nM, 4.3 and 100 nm/s.
As for `COc1cc2nccc(Oc3ccc(NC(=O)c4cn(C)cc(-c5ccc(F)cc5)c4=O)nc3)c2cc1OC` [Example 2], the IC50 is 1 nM in data set [1] and 6.4 nM in data set [2]. For the same molecule, the efflux ratio at 2 h, 1 μM in data set [3] (setting [4]) was determined as 8.3. For the same molecule, the Papp at 2 h, 1 μM in data set [3] amounted to 150 nm/s.
In the case of `COc1cc2nccc(Oc3cnc(NC(=O)c4cn(C(C)C)cc(-c5ccc(F)cc5)c4=O)nc3)c2cc1OC` [Example 54, N-(5-((6,7-dimethoxyquinolin-4-yl)oxy)pyrimidin-2-yl)-5-(4-fluorophenyl)-1-isopropyl-4-oxo-1,4-dihydropyridine-3-carboxamide], the IC50 in data set [1] was found to be 5 nM; in data set [2] it was 4.7 nM. The efflux ratio at 2 h, 1 μM in data set [3] (setting [4]) was 114. This molecule also registered a Papp at 2 h, 1 μM in data set [3] of 120 nm/s.
On the same counts, the results for `COc1cc2nccc(Oc3ccc(NC(=O)c4cn(CCN(C)C)cc(-c5ccc(F)cc5F)c4=O)nc3)c2cc1OC` [Example 44, 5-(2,4-difluorophenyl)-N-(5-((6,7-dimethoxyquinolin-4-yl)oxy)pyridin-2-yl)-1-(2-(dimethylamino)ethyl)-4-oxo-1,4-dihydropyridine-3-carboxamide] are 2 nM, 2.2 nM, 11 and 20 nm/s.
As for `CCOc1ccc2c(Oc3ccc(NC(=O)c4cn(C(C)C)cc(-c5ccc(F)cc5)c4=O)nc3)ccnc2c1` [Example 52, N-(5-((7-ethoxyquinolin-4-yl)oxy)pyridin-2-yl)-5-(4-fluorophenyl)-1-isopropyl-4-oxo-1,4-dihydropyridine-3-carboxamide], the IC50 amounted to 4 nM in data set [1] and 14.7 nM in data set [2]. The efflux ratio at 2 h, 1 μM in data set [3] (setting [5]) amounted to 3.5; in data set [3] (setting [4]), 1.8. This molecule also displayed a Papp at 2 h, 1 μM in data set [3] of 20 nm/s.
For the molecule `COc1cc2nccc(Oc3ccc(NC(=O)c4cn(CCC(C)C)cc(-c5ccc(Cl)cc5)c4=O)nc3)c2cc1OC` [Example 37], the IC50 in data set [1] was 5 nM; in data set [2], 10 nM. In data set [3] (setting [4]), the efflux ratio at 2 h, 1 μM came to 13. The molecule also came in with a Papp at 2 h, 1 μM in data set [3] of less than 10 nm/s.
